The values that follow come from patent US8337916B2, “Use of Aphanamixis polystacha extracts or fractions against 5-lipoxygenase mediated diseases” (Laila Nutraceuticals, priority 2007, dated 2012).

Each structure is given as a SMILES string.

The nature of experiment [1]: Superoxide radical scavenging activity (NBT method, McCord and Fridovich). In kind it is biochemical. The following applies: riboflavin/NBT, phosphate buffer pH 7.8, 560 nm. The protocol: Superoxide radical scavenging activity of test substances was determined by the method of McCord and Fridovich. […] The tubes were mixed well and optical densities were measured at 560 nm. The tubes were uniformly illuminated with an incandescent lamp for 15 min. and the optical densities were measured again at 560 nm. The percentage inhibition of superoxide radical generation was measured by comparing the absorbance values of control and those of the test substances. The IC50 values were obtained from the plot drawn of the concentration (μg) verses percentage inhibition.

The nature of experiment [2]: DPPH free radical scavenging activity (method of Lamaison et al.). In kind it is physicochemical. The following applies: methanolic DPPH, 517 nm.
The test system of the next experiment is paw edema. Kind of experiment: Freund complete adjuvant induced arthritis model, paw edema. In kind it is in vivo, Sprague Dawley rats. The following applies: prednisolone 10 mg/kg body weight for 14 days; paw volume 13 days after FCA; vs CMC control. The protocol:
The anti-oxidant and anti-inflammatory efficacies of Aphanamixis polystachya extract or fractions were evaluated by an in vivo study in Freund complete adjuvant induced arthritis model of Sprague Dawley rats. The rats of either sex were randomly selected and divided into three groups containing four animals in each group. Rats were supplemented with 50 mg/kg body weight of A. polystachya extract, or prednisolone (10 mg/kg body weight) for 14 days. The animals of control group received only the same volume of 1% Na CMC. At the 14 th day, Freund complete adjuvant (FCA) was injected subcutaneously in the sub-plantar region of the left hind paw of each animal. At the end of experiment, the animals were sacrificed and liver tissue samples were excised and stored in aliquot at −80° C. Blood samples were collected from each animal at a regular interval and paw volumes were measured by Plethysmography equipment after 13 days of FCA inoculation. The difference in volume of edema at the day of FCA injection and at 13th day after induction is considered as the inflammatory response. The in vivo anti-inflammatory response of A. polystachya was estimated by calculating, the percentage of inhibition of paw edema when compared with the CMC supplemented control rats and was compared with that of the positive control group supplemented with prednisolone as shown in FIG. 1.

Consider `O=C1O[C@H]([C@@H](O)CO)C(O)=C1O` [Vitamin C], for which the “NBT method IC50 (superoxide radical scavenging)” value in experiment [1] was 150 µg/mL. Moreover, the “DPPH method IC50” value in experiment [2] was 4.1 µg/mL.

For the compound `C[C@]12C=CC(=O)C=C1CC[C@@H]1[C@@H]2[C@@H](O)C[C@@]2(C)[C@H]1CC[C@]2(O)C(=O)CO` [prednisolone], the “inhibition in paw edema” value in the experiment on paw edema worked out at 47.4%.
